Results published in publication PMC7821884, “BRAF inhibition protects against hearing loss in mice” (Science Advances, 2020).

Columns and labels:
P42 FVB mice = assay: Cisplatin-induced hearing loss in adult mice (ABR, OHC counts, pERK)
Procedure: As described in Fig. 4A, baseline auditory brainstem response (ABR) thresholds for P42 FVB mice were established 1 week before experimental procedures. […] Animals were allowed 21 days after cisplatin injection to recover, and final ABR thresholds were recorded.
Ten milligrams of cisplatin (479306, Sigma-Aldrich) powder was dissolved in 10 ml of sterile saline (0.9% NaCl) at 37°C for 40 to 60 min. Cisplatin was administered to FVB mice at 30 mg/kg via intraperitoneal injection. One day before cisplatin injection, mice received 1 ml of saline by subcutaneous injection. To ameliorate dehydration after cisplatin injection, 1 ml of warm saline was injected twice per day for at least 7 days or until body weight started to recover. The cages of cisplatin-treated mice were placed on the heating pad for at least 7 days or until body weight began to recover. Fresh mush food was daily given for at least 7 days.
Compounds were dissolved in a mixture of 10% DMSO, 5% Tween 80 (P1754, Sigma-Aldrich), 40% PEG-E-300 (91462-1KG, Sigma-Aldrich), and 45% 0.9% saline.
ABR in mice was measured for left ears as described previously with minor modifications ([13], [34]). In brief, ABR waveforms were recorded in a sound booth (Industrial Acoustic Company) by using subdermal needles positioned in the skull, below the pinna, and at the base of the tail, and the responses were fed into a low-impedance Medusa digital biological amplifier system (RA4L; TDT; 20-dB gain). At each frequency, the stimulus intensity was reduced from 90 to 0 dB in 10-dB steps to determine the threshold decibel SPL when the electrical response was just above the noise floor. ABR waveforms were averaged in response to 500 tone bursts. The recorded signals were filtered by a band-pass filter from 300 Hz to 3 kHz. Pretreatment ABR recordings of adult FVB mice (aged 6 weeks) were acquired 1 week before all treatments, and posttreatment ABR measurements were recorded 21 days after cisplatin treatment or 14 days after noise exposure. ABR threshold was determined by the presence of any of three or more of the five waveform peaks. […] All thresholds and shifts were determined independently by two experimenters for each mouse. Individual ABR wave 1 amplitudes were measured as the difference between the positive peak and the following negative trough.
Cochleae from adult mice were prepared and examined as described previously ([85], [86]). All images were acquired with a confocal microscope (LSM 700 or 710, Zeiss). Samples were stained with phalloidin (A12379 or A12380, Invitrogen) or with antibodies for other markers. The following primary antibodies were used: anti–myosin VI (1:400; 25-6791; Proteus Bioscience), anti–myosin VIIa ([…];138-1-s, Developmental Studies Hybridoma Bank), anti-Tuj1 (1:250; 801201, BioLegend), anti-pERK (1:400; 9101S, Cell Signaling Technology), or anti-Ctbp2 (1:500; 612044, BD Transduction). Anti-rabbit Alexa Fluor 488 (1:400; A11034) and anti-mouse Alexa Fluor 647 (1:400; A31571) secondary antibodies were purchased from Invitrogen. ProLong gold antifade reagent with 4′,6-diamidino-2-phenylindole (P36941, Invitrogen) was used to counterstain nuclei.

IMR-32 = assay: Tumor Cell Titer-Glo viability assay, IMR-32; format: cell-based, human; details: IMR-32, 35 μM + 15 μM cisplatin, 48 hours
Text: In clinical settings, cisplatin is used to treat several tumor types, including neuroblastoma and lung carcinoma. […] Medium-alone–, cisplatin-alone–, and dabrafenib-alone–treated cells were used as controls, and viability was reported as percent survival compared to medium alone (Fig. 4E).
Three human neuroblastoma cell lines IMR-32, SH-SY5Y, and, SK-N-AS, as well as three human lung carcinoma cell lines SHP-77 small cell, H1155 non–small cell, and A549 non–small cell, were used to determine the compounds’ effect on cisplatin’s tumor-killing efficacy ([77]–[83]). Cell lines were purchased from the American Type Culture Collection (ATCC), and cell culture was conducted according to ATCC specifications. Neuroblastoma cell lines IMR-32 and SH-SY5Y are maintained in Dulbecco’s modified Eagle’s medium (DMEM) 1× with glucose (4.5 g/liter), L-glutamine, and sodium pyruvate (10-013-CV, Corning) with 10% fetal bovine serum (FBS) (35011132, Corning) and ampicillin (50 μg/ml; A5354-10ML, Sigma-Aldrich) added. The SK-N-AS cell line is maintained in DMEM 1× with D-glucose (4.5 g/liter), L-glutamine, and 25 mM Hepes (12430-054, Gibco) with 10% FBS, 0.1 mM nonessential amino acids, and ampicillin (50 μg/ml) added. A549 cells are maintained in F-12K medium with L-glutamine (30-2004, ATCC) with 10% FBS and ampicillin (50 μg/ml) added. […]

In the case of `CC(C)(C)c1nc(-c2cccc(NS(=O)(=O)c3c(F)cccc3F)c2F)c(-c2ccnc(N)n2)s1` [dabrafenib], the “ERK phosphorylation in cochlear SCs after cisplatin” value (P42 FVB mice; 100 mg/kg 45 min pretreatment, 1 hour after cisplatin 30 mg/kg i.p.) is reported as “attenuated”, the “protection of ABR threshold at 16 kHz” value (P42 FVB mice; 100 mg/kg oral, cisplatin 30 mg/kg i.p.) is reported as “nearly full protection” and the “loss of OHCs in cochlea, combined with cisplatin” value (P42 FVB mice; 100 mg/kg oral, cisplatin 30 mg/kg, 8-, 16-, 32-kHz regions) is reported as “limited”. For the same compound, the “OHC loss, drug alone” value (P42 FVB mice; 100 mg/kg oral, no cisplatin) was “No OHC loss”, the “whole-body toxicity or ototoxic effects” value (P42 FVB mice; 3-day dabrafenib-alone treatment, weight, appearance/behavior, ototoxicity up to 21 days) was “did not observe whole-body toxicity or ototoxic effects” and the “survival rate of mice” value (P42 FVB mice; cisplatin 30 mg/kg i.p., alone or combined with dabrafenib) was 50%. For the same compound, the “crossing of the blood-labyrinth barrier” value (P42 FVB mice; inferred from effects in mice via oral delivery) was “crosses the blood-labyrinth barrier”, the “ABR wave 1 amplitude at 16 kHz versus cisplatin alone” value (P42 FVB mice; significant at 90-dB SPL) was “higher” and the “effect on tumor cell death when combined with cisplatin” value (IMR-32) was “increased tumor cell death”.
